Data as given in ChEMBL document CHEMBL1201862, “PubChem BioAssay data set” (2004).
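Cells were grown in 96-well plates and exposed to each compound for 48 hours at five concentrations; endpoints were interpolated linearly between bracketing concentrations, or set to the highest concentration if not reached. Abbreviation: GI50, concentration required for 50% inhibition of growth.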 The source made the active and inactive calls. No stated cut-off is given here; in the data, active = GI50 up to about 1.1 µM and inactive = higher.

How the values were obtained:
Test in all cases: NCI tumour cell line growth inhibition, 48 h
SNB-19 = system: SNB-19
SK-MEL-5 = system: SK-MEL-5
KM12 = system: KM12
OVCAR-8 = system: OVCAR-8
OVCAR-5 = system: OVCAR-5
SNB-78 = system: SNB-78
EKVX = system: EKVX
SF-295 = system: SF-295
CAKI-1 = system: CAKI-1
DMS-114 = system: DMS-114
UACC-62 = system: UACC-62
IGROV-1 = system: IGROV-1
UACC-257 = system: UACC-257
SK-MEL-28 = system: SK-MEL-28
A549 = system: A549
MOLT-4 = system: MOLT-4
SK-MEL-2 = system: SK-MEL-2
RPMI-8226 = system: RPMI-8226
NCI/ADR-RES = system: NCI/ADR-RES

Fc1ccc2c(c1)cc1ccc3cccc4ccc2c1c34
GI50 (SNB-19): > 100 µM (inactive) | GI50 (SK-MEL-5): > 100 µM (inactive) | GI50 (KM12): > 100 µM (inactive) | GI50 (OVCAR-8): > 100 µM (inactive) | GI50 (OVCAR-5): > 100 µM (inactive) | GI50 (SNB-78): > 100 µM (inactive) | GI50 (EKVX): 5.02 µM (inactive) | GI50 (SF-295): > 100 µM (inactive) | GI50 (CAKI-1): > 100 µM (inactive) | GI50 (DMS-114): > 100 µM (inactive) | GI50 (UACC-62): > 100 µM (inactive) | GI50 (IGROV-1): > 100 µM (inactive) | GI50 (UACC-257): > 100 µM (inactive) | GI50 (SK-MEL-28): > 100 µM (inactive) | GI50 (A549): > 100 µM (inactive) | GI50 (MOLT-4): > 100 µM (inactive) | GI50 (SK-MEL-2): > 100 µM (inactive)

CCOC(=O)C(=O)Nc1ccc(Cl)cc1C
GI50 (SNB-19): > 100 µM (inactive) | GI50 (SK-MEL-5): > 100 µM (inactive) | GI50 (KM12): > 100 µM (inactive) | GI50 (OVCAR-8): > 100 µM (inactive) | GI50 (OVCAR-5): > 100 µM (inactive) | GI50 (SNB-78): > 100 µM (inactive) | GI50 (EKVX): > 100 µM (inactive) | GI50 (SF-295): > 100 µM (inactive) | GI50 (CAKI-1): > 100 µM (inactive) | GI50 (RPMI-8226): > 100 µM (inactive) | GI50 (DMS-114): > 100 µM (inactive) | GI50 (UACC-62): > 100 µM (inactive) | GI50 (IGROV-1): > 100 µM (inactive) | GI50 (UACC-257): > 100 µM (inactive) | GI50 (SK-MEL-28): > 100 µM (inactive) | GI50 (A549): > 100 µM (inactive) | GI50 (MOLT-4): > 100 µM (inactive) | GI50 (SK-MEL-2): > 100 µM (inactive)

CC(=O)Nc1ccccc1S(=O)(=O)c1ccccc1
GI50 (SNB-19): > 100 µM (inactive) | GI50 (SK-MEL-5): > 100 µM (inactive) | GI50 (KM12): > 100 µM (inactive) | GI50 (OVCAR-8): > 100 µM (inactive) | GI50 (OVCAR-5): 0.0409 µM (active) | GI50 (SNB-78): > 100 µM (inactive) | GI50 (EKVX): > 100 µM (inactive) | GI50 (SF-295): > 100 µM (inactive) | GI50 (CAKI-1): > 100 µM (inactive) | GI50 (RPMI-8226): > 100 µM (inactive) | GI50 (DMS-114): > 100 µM (inactive) | GI50 (UACC-62): > 100 µM (inactive) | GI50 (IGROV-1): > 100 µM (inactive) | GI50 (UACC-257): > 100 µM (inactive) | GI50 (SK-MEL-28): > 100 µM (inactive) | GI50 (A549): > 100 µM (inactive) | GI50 (MOLT-4): > 100 µM (inactive) | GI50 (SK-MEL-2): > 100 µM (inactive)

O=C(CC1C(=O)Nc2ccccc2S1(=O)=O)Nc1cc(Cl)ccc1Cl (centres undefined)
GI50 (SNB-19): 15.5 µM (inactive) | GI50 (SK-MEL-5): 13.5 µM (inactive) | GI50 (OVCAR-8): 17.5 µM (inactive) | GI50 (OVCAR-5): 24.4 µM (inactive) | GI50 (SNB-78): 12.7 µM (inactive) | GI50 (EKVX): 10.6 µM (inactive) | GI50 (SF-295): 17.5 µM (inactive) | GI50 (CAKI-1): 16.1 µM (inactive) | GI50 (RPMI-8226): 2.87 µM (inactive) | GI50 (DMS-114): 12.5 µM (inactive) | GI50 (UACC-62): 14.6 µM (inactive) | GI50 (IGROV-1): 13.1 µM (inactive) | GI50 (UACC-257): 35.2 µM (inactive) | GI50 (SK-MEL-28): 16.6 µM (inactive) | GI50 (A549): 16.7 µM (inactive) | GI50 (MOLT-4): 6.01 µM (inactive) | GI50 (SK-MEL-2): 14.9 µM (inactive)

Cc1ccc(NC(=O)C2C(=O)N(c3ccc(C)cc3)C(=O)/C2=N\NC(N)=S)cc1 (centres undefined)
GI50 (SNB-19): > 100 µM (inactive) | GI50 (SK-MEL-5): > 100 µM (inactive) | GI50 (KM12): > 100 µM (inactive) | GI50 (OVCAR-8): > 100 µM (inactive) | GI50 (OVCAR-5): > 100 µM (inactive) | GI50 (SNB-78): > 100 µM (inactive) | GI50 (EKVX): > 100 µM (inactive) | GI50 (SF-295): > 100 µM (inactive) | GI50 (CAKI-1): > 100 µM (inactive) | GI50 (RPMI-8226): > 100 µM (inactive) | GI50 (DMS-114): > 100 µM (inactive) | GI50 (UACC-62): > 100 µM (inactive) | GI50 (IGROV-1): > 100 µM (inactive) | GI50 (UACC-257): > 100 µM (inactive) | GI50 (SK-MEL-28): > 100 µM (inactive) | GI50 (MOLT-4): > 100 µM (inactive) | GI50 (SK-MEL-2): > 100 µM (inactive)

C=C1C(=O)C23C(CC(OC(C)=O)C1[C@@H]2OC(C)=O)C1(C)C(OC(C)=O)CCC(C)(C)C1C[C@@H]3OC(C)=O (some centres undefined)
GI50 (SNB-19): 1.86 µM (inactive) | GI50 (SK-MEL-5): 1.84 µM (inactive) | GI50 (KM12): 1.91 µM (inactive) | GI50 (OVCAR-8): 0.418 µM (active) | GI50 (OVCAR-5): 1.86 µM (inactive) | GI50 (SNB-78): 1.53 µM (inactive) | GI50 (EKVX): 3.31 µM (inactive) | GI50 (SF-295): 1.46 µM (inactive) | GI50 (CAKI-1): 0.653 µM (active) | GI50 (RPMI-8226): 1.48 µM (inactive) | GI50 (DMS-114): 1.14 µM (inactive) | GI50 (UACC-62): 1.9 µM (inactive) | GI50 (IGROV-1): 1.45 µM (inactive) | GI50 (UACC-257): 1.74 µM (inactive) | GI50 (SK-MEL-28): 1.87 µM (inactive) | GI50 (A549): 1.68 µM (inactive) | GI50 (MOLT-4): 0.365 µM (active) | GI50 (SK-MEL-2): 1.93 µM (inactive)

CSC[S+]([O-])C[C@H](CO)NC(=O)/C=C/c1c(C)[nH]c(=O)[nH]c1=O (some centres undefined)
GI50 (SNB-19): 0.52 µM (active) | GI50 (NCI/ADR-RES): 1.27 µM (inactive) | GI50 (SK-MEL-5): 2.44 µM (inactive) | GI50 (KM12): 1.34 µM (inactive) | GI50 (OVCAR-8): 1.43 µM (inactive) | GI50 (OVCAR-5): 2.06 µM (inactive) | GI50 (SNB-78): 0.318 µM (active) | GI50 (EKVX): 1.87 µM (inactive) | GI50 (SF-295): 0.457 µM (active) | GI50 (CAKI-1): 1.65 µM (inactive) | GI50 (RPMI-8226): 1.79 µM (inactive) | GI50 (DMS-114): 0.757 µM (active) | GI50 (UACC-62): 1.01 µM (active) | GI50 (IGROV-1): 0.614 µM (active) | GI50 (UACC-257): 1.38 µM (inactive) | GI50 (SK-MEL-28): 0.767 µM (active) | GI50 (A549): 1.15 µM (inactive) | GI50 (MOLT-4): 1.92 µM (inactive) | GI50 (SK-MEL-2): 1.08 µM (active)
